This note sets out measurements from PMC6937593, “Anti-metastatic Inhibitors of Lysyl Oxidase (LOX): Design and Structure–Activity Relationships” (Journal of Medicinal Chemistry, 2019).

One data set is described as follows: In vivo PK in mice. Set-up: species or system mouse.
Another data set addresses T1, LOX (Sus scrofa, UniProt P45845).
T1 construct: LOX enzyme was extracted from pig skin by the method of Shackleton and Hulmes; from tissue; host or cells: pig skin
T1 sequence (P45845 1-249): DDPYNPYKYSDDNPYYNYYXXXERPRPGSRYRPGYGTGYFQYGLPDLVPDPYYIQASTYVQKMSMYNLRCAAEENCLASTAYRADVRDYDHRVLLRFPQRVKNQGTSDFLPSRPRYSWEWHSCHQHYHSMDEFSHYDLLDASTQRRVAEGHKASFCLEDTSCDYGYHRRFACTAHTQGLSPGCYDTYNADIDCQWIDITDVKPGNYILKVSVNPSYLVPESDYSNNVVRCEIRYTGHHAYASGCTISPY
The data set is described as follows: LOX enzyme activity assay (HRP-coupled fluorescent, cadaverine substrate).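 Also: LOX isolated from porcine skin, nine-point dilution series starting at 100 µM, 20 min preincubation with enzyme, BAPN serving as positive control.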 The format is biochemical, pig.

Another data set deals with T2, DAO (Sus scrofa, UniProt Q9TRC7).
T2 construct: purchased Sigma
T2 sequence (Q9TRC7 25-755): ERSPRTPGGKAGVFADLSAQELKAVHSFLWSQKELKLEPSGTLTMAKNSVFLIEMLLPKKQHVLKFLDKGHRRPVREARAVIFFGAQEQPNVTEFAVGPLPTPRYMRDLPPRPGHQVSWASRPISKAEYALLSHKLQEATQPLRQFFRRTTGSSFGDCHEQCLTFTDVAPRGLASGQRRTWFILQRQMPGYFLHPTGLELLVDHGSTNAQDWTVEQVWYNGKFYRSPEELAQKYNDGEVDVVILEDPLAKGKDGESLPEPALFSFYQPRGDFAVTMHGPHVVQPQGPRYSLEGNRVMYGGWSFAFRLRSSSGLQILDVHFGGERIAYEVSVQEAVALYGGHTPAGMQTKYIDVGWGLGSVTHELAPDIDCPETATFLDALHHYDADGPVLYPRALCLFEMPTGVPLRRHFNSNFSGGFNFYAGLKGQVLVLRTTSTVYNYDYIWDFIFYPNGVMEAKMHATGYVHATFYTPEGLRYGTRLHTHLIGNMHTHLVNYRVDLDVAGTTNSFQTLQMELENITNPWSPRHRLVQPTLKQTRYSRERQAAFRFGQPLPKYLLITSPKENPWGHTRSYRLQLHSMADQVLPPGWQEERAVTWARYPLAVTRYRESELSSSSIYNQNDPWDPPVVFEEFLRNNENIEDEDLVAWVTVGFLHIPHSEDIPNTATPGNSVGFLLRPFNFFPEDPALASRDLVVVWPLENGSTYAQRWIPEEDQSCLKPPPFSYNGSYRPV
The data set is described as follows: biochemical. As to conditions: n = 2 individual values.

Data set [1] can be described thus: Caco-2 permeability assay. Type of data set: in vitro ADME. To be noted: human. (In general: Caco-2 monolayers are a common model of the intestinal barrier.)
A short description of another data set: MLM stability assay. The format is in vitro ADME, mouse. To be noted: percentage of compound remaining after 30 min; 10 μM.
The target of a further data set is T3, MAO-B (Homo sapiens, UniProt P27338).
T3 construct: purchased Sigma
T3 sequence (P27338 1-520): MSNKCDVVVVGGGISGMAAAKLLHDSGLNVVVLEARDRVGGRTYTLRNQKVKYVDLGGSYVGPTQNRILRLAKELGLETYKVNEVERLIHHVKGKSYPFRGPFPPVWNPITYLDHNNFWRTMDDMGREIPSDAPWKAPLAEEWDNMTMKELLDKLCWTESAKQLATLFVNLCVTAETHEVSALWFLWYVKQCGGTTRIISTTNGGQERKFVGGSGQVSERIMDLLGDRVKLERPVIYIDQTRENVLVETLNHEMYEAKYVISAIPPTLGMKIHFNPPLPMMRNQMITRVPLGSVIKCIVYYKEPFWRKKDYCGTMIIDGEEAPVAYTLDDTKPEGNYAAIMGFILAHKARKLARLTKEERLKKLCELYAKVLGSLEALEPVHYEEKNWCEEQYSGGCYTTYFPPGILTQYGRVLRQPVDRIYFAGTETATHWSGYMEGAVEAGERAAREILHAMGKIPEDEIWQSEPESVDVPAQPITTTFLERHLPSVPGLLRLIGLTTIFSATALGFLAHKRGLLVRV
The data set is described as follows: MAO-B assay (MAO-Glo). To be noted: n = 2 individual values. The format is biochemical.

Setting [2] is: mouse plasma, single oral gavage dose 50 mg/kg.

Some results are limits rather than exact numbers.

Experimental for DAO: (§1) All amine oxidase assays were performed with concentrations as above. MAO-A and MAO-B enzymes were purchased from Promega and Sigma, respectively. The catalytic activity of MAO-A and MAO-B was determined using the Promega MAO-Glo assay kit (substrate included), with clorgyline and deprenyl as positive controls, respectively. DAO was purchased from Sigma and the catalytic activity was determined using the Promega ROS-Glo assay kit, with aminoguanidine as the positive control.
Experimental for In vivo PK in mice: Female BALB/c or CD1 mice (Charles River Laboratories) at 6 weeks of age were used for the PK analyses. The mice were dosed orally by gavage (50 mg/kg in dimethyl sulfoxide (DMSO)/water 1:19 v/v; n = 21) or intravenously in the tail vein (10 mg/kg in DMSO/Tween20/saline 10:1:89 v/v/v; n = 24). […] Three mice were used per time point per route. They were placed under halothane or isoflurane anesthesia, and blood for plasma preparation was taken by terminal cardiac puncture into heparinized syringes. Plasma samples were snap-frozen in liquid nitrogen and then stored at −80 °C prior to analysis.
Experimental for LOX: LOX enzyme was extracted from pig skin by the method of Shackleton and Hulmes.[24] LOX catalytic activity was determined using a horseradish peroxidase (HRP)-coupled fluorescent assay previously described,[19] with cadaverine hydrochloride as a substrate, BAPN as positive control, and a preincubation time of 20 min with nine dilutions from a top concentration of 100 μM.
Experimental for MAO-B: as §1
Experimental for MLM stability assay: Mouse liver microsomes (BALB/c) were purchased from Tebu-bio, and the assay was performed by methods previously described.[19] Inhibitors at 10 μM concentration incubated with the microsomes were assessed at 0, 15, and 30 min. Control samples containing no microsomes and no cofactors were also assessed at 0 and 30 min. Samples were extracted by protein precipitation and centrifugation for 20 min in a refrigerated centrifuge (4 °C) at 3700 rpm. The supernatant was analyzed by LCMS/MS for % metabolized over time.

As to `Cc1ccc(-c2cc(S(=O)(=O)c3ccc(CN)s3)ccc2S(C)(=O)=O)cc1.Cl` [9l, (5-((4′-Methyl-6-(methylsulfonyl)-[1,1′-biphenyl]-3-yl)sulfonyl)thiophen-2-yl)methanamine Hydrochloride], in the data set “In vivo PK in mice” (setting [2]), the “AUC(PO)” value came to 12 µM·h and the maximum concentration (Cmax) came out at 9.4 µM. The “F (oral bioavailability)” value in “In vivo PK in mice” (mouse, PO 50 mg/kg vs IV 10 mg/kg) is listed as 74%. Besides, in “In vivo PK in mice” (mouse, intravenous 10 mg/kg), the “CL(IV)” value was 106 mL/min/kg and the “t1/2(IV)” value worked out at 24 min. On LOX, the “LOX inhibition (in words)” value is “sub-micromolar”. Also, the IC50 against DAO is > 100 µM. The apparent permeability from apical to basolateral (Papp A→B) in data set [1] (A → B) came to 18 ×10⁻⁶ cm/s. The basolateral-to-apical permeability (Papp B→A) in data set [1] (B → A) came to 25 ×10⁻⁶ cm/s. In the data set “MLM stability assay”, the “MLM stability (%)” value stood at 95%. In addition, the IC50 against MAO-B was > 100 µM.
Turning to `CS(=O)(=O)c1cc(-c2ccccc2)cc(S(=O)(=O)c2ccc(CN)s2)c1` [9f], the IC50 against DAO was > 100 µM.

For orientation: Cmax means the highest concentration seen after dosing. What is called IC50 is the concentration at which inhibition is half-maximal. Lower therefore signals greater potency in that assay. For orientation: Papp A→B means the apparent permeability from the apical to the basolateral side of a cell layer. By Papp B→A is commonly meant the apparent permeability from the basolateral to the apical side of a cell layer.
